Data on three compounds can be found in patent US10077239B2, “Crystalline forms of a hepatitis B antiviral agent” (NOVIRA THERAPEUTICS, INC, priority 2015, dated 2018).

“Also recorded” adds a separate entry of the source. Like-named read-outs stand apart in the source and are kept apart here.

Usually solubility stands for the dissolved amount per volume that the medium holds.

Assay type in all cases: physicochemical
A short description of data set [1]: Solubility of the crystalline forms.
A short description of data set [2]: Stability under simulated storage conditions: XRPD under temperature and relative humidity. Conditions: for XRPD under RH: phase transition: 10% to 80% RH at 25° C. Here is the method:
Stability Under Simulated Storage Conditions: XRPD The stability of crystalline Forms I and XVI was characterized by XRPD under temperature and relative humidity conditions that stimulate potential storage conditions. XRPD XRPD was performed on a PHILIPS PANalytical, X'Pert Pro. diffractometer The experimental conditions are the following: • Configuration Bragg-Brentano: θ−θ • Source: Cu with Kα1 at λ=1.5406 Å. • The power supply works at 45 kV and 40 mA. • Detector: PSD X'Celerator in scanning mode • Sample temperature: room temperature • Angular variation: from 2θ=3° to 45° • Step size [° 2θ]: 0.008 • Scan step time (in s): 13 39 • Duration: 20 min according to the diffraction intensity A few mg of sample were prepared on a silicon plate without any special treatment other than a slight pressure to obtain a flat and homogeneous surface for reproducible and repeatable results.

The nature of data set [3]: Hygroscopicity by dynamic vapor sorption (DVS). Conditions: for Hydrophilicity / hygroscopicity rating from DVS / Hysteresis between initial and final state, DVS: 37° C.; for Water (moisture) uptake, DVS: from 0% to 100% RH at 37° C. Here is the method:
DVS The temperature and RH are pre-set according to the initial temperature and RH. Method at 37° C.: • Equilibrating 20 min at 50% • Set from 50% to 0% • Equilibrating 20 min at 0% RH • Set from 0% to 100% by step of 10% RH (50% RH per hour) • 3 hours at 100% RH • From 100% RH to 0% RH by step of 10% RH (−50% RH per hour) • Equilibrating 20 min at 0% RH • Set from 0% to 50% • Equilibrating 20 min at 50% RH Particle Size Distribution (Malvern)

Data set [4] is described as follows: Stability under simulated storage conditions: XRPD under temperature and relative humidity. The conditions noted are these: for XRPD under temperature: phase transition: temperature increased from 25° C. to 160° C.
The nature of data set [5]: Particle size distribution (Malvern laser diffraction). The conditions noted are these: for Particle size D10 after sonication / Particle size D50 after sonication / Particle size D90 after sonication: after ultrasound treatment (40 seconds); for Particle size D10 / Particle size D50 / Particle size D90: without ultrasound treatment. Here is the method: • Equilibrating 20 min at 50% • Set from 50% to 0% • Equilibrating 20 min at 0% RH • Set from 0% to 100% by step of 10% RH (50% RH per hour) • 3 hours at 100% RH • From 100% RH to 0% RH by step of 10% RH (−50% RH per hour) • Equilibrating 20 min at 0% RH • Set from 0% to 50% • Equilibrating 20 min at 50% RH Particle Size Distribution (Malvern) A total of 3 measurements by batch were made to ensure repeatable and reproducible results. • Dispersant: Silicon oil. A good dispersion is observed in this media and Compound (1) is not soluble in silicon oil. • Stirring: 2000 rpm • lens: 300RF • Analysis model: polydisperse • Presentation code: 3OAE • Number of measurement sweeps: 5000 • Density: 1.000 g·cm^3 • With or without stage of ultrasound

Data set [6] is described as follows: Thermal analysis (DSC/TGA/hot stage): decomposition. Here is the method:
Thermal Analysis (DSC/TGA/Hot Stage) An accurate amount of compound (mg scale) is set up in 40 μL Al crucible with perforated lids. The heating rate is 20° C./min in a nitrogen gas flow. The heating ranged from 30 to 400° C.

A further data set in a line: pH solubility profile.

With `O=C(Nc1cc(F)c(F)c(F)c1)c1ccc(F)c(S(=O)(=O)N2CCC(O)CC2)c1` [Compound (1), 4-fluoro-3-((4-hydroxypiperidin-1-yl)sulfonyl)-N-(3,4,5-trifluorophenyl)benzamide], the “Solubility in silicon oil” value in data set [1] (silicon oil, dispersant of the particle size measurement) is “not soluble”.

`O=C(Nc1cc(F)c(F)c(F)c1)c1ccc(F)c(S(=O)(=O)N2CCC(O)CC2)c1` [Form XVI, 4-fluoro-3-((4-hydroxypiperidin-1-yl)sulfonyl)-N-(3,4,5-trifluorophenyl)benzamide]: the “XRPD under RH: phase transition” value in data set [2] is “No transition phase from 10%”. For the same compound, the “Impact of relative humidity on the crystalline phase (XRPD)” value in data set [2] (RH 7-30-90% at 25 or 45° C.) is on record as “no impact”. For the same compound, the “Stability of the crystalline form with respect to temperature and relative humidity” value in data set [2] (XRPD monitoring at higher temperatures and varying humidity) is listed as “high stability; also recorded: maintains its crystallinity; also recorded: highly stable”. Also, in data set [3], the “Hydrophilicity / hygroscopicity rating from DVS” value is “slightly hydrophilic; also recorded: low hydrophilicity”; the “Hysteresis between initial and final state, DVS” value is reported as “No hysteresis”; the “Water (moisture) uptake, DVS” value was determined as 0.8%. Further, in data set [3] (listed as FXVI), the “Hydrophilicity / hygroscopicity rating from DVS” value came to 100% ⋄ slightly hydrophilic and the “Water (moisture) uptake, DVS” value is given as “Uptake of 0.8% from 0 to”. In data set [4], the “XRPD under temperature: phase transition” value is “no phase transition”. In data set [4] (listed as FXVI), the “XRPD under temperature: phase transition” value is given as “No transition phase until”. For the same compound, in data set [1] (MTBE, 25° C.), the “Solubility in MTBE” value is “In MTBE <2 g/L at 25 °C”. Moreover, the Solubility in water entry in data set [1] (water, 25° C.) was “In Water <2 g/L at 25 °C”. Further, in data set [5], the “Particle size D10 after sonication” value stood at 4.2 μm, the “Particle size D50 after sonication” value is 20.0 μm, the “Particle size D90 after sonication” value is reported as 37.5 μm and the “Particle size D10” value was 9.8 μm. Also, in data set [5], the “Particle size D50” value came to 23.7 μm and the “Particle size D90” value turned out to be 45.8 μm. For the same compound, in data set [5] (listed as FXVI), the “Particle size D10 after sonication” value is listed as “D10 = 4.2 μm”, the “Particle size D50 after sonication” value is on record as “D50 = 20.0 μm” and the “Particle size D90 after sonication” value is reported as “D90 = 37.5 μm”. Besides, the “Decomposition (degradation) temperature” value in data set [6] is “above 300 °C”. Also, the “Decomposition (degradation) temperature” value in data set [6] (listed as FXVI) was “Decomposition >300 °C”. Besides, the pH solubility profile result in “pH solubility profile” is “Slightly soluble”.

As for `O=C(Nc1cc(F)c(F)c(F)c1)c1ccc(F)c(S(=O)(=O)N2CCC(O)CC2)c1` [Form I, 4-fluoro-3-((4-hydroxypiperidin-1-yl)sulfonyl)-N-(3,4,5-trifluorophenyl)benzamide], in data set [2], the “XRPD under RH: phase transition” value is “No transition phase from 10%”. For the same compound, the “Impact of relative humidity on the crystalline phase (XRPD)” value in data set [2] (RH 7-30-90% at 25 or 40° C.) is “no impact”. In data set [3], the “Hydrophilicity / hygroscopicity rating from DVS” value was “slightly hydrophilic; also recorded: low hydrophilicity”; the “Hysteresis between initial and final state, DVS” value is given as “No hysteresis”; the “Water (moisture) uptake, DVS” value is 1.5%. Further, the “Hydrophilicity / hygroscopicity rating from DVS” value in data set [3] (listed as FI) is recorded as 100% ⋄ slightly hydrophilic. The “Temperature from which the phase transition starts (XRPD)” value in data set [4] (heating from 25° C. to 160° C.) is 100 °C. Moreover, the “Temperature at which the phase transition is complete (XRPD)” value in data set [4] (heating from 25° C. to 160° C., not reversible) is 160 °C. Further, in data set [4], the “XRPD under temperature: phase transition” value is given as “sensitive to the temperature”. Further, the “XRPD under temperature: phase transition” value in data set [4] (listed as FI) is recorded as “Complete transition towards”. In addition, the solubility in data set [1] (organic solvent or mixture, MTBE, 25° C., read-out: Solubility in MTBE) is less than 2000 µg/mL. For the same compound, the solubility in data set [1] (water, 25° C., read-out: Solubility in water) is less than 2000 µg/mL. Moreover, in data set [5], the “Particle size D10 after sonication” value turned out to be 4.7 μm, the “Particle size D50 after sonication” value was determined as 14.2 μm, the “Particle size D90 after sonication” value is given as 66.9 μm and the “Particle size D10” value stood at 5.8 μm. In data set [5], the “Particle size D50” value is listed as 69.1 μm and the “Particle size D90” value is given as 342.6 μm. Also, in data set [5] (listed as FI), the “Particle size D10 after sonication” value was “D10 = 4.7 μm”, the “Particle size D50 after sonication” value is listed as “D50 = 14.2 μm” and the “Particle size D90 after sonication” value is reported as “D90 = 66.9 μm”. The “Decomposition (degradation) temperature” value in data set [6] was “above 300 °C”. Also, the “Decomposition (degradation) temperature” value in data set [6] (listed as FI) is “Decomposition >300 °C”. Also, the pH solubility profile result in “pH solubility profile” was “Slightly soluble”.
